Test results reported in patent US9422240B2, “Partially saturated nitrogen-containing heterocyclic compound” (TAISHO PHARMACEUTICAL CO., LTD, priority 2012, dated 2016).

target: human PHD2 (Homo sapiens (Human), UniProt Q9GZT9); assay: Test 2: human PHD2 inhibitory activity, fluorescence polarization assay of HIF-1α peptide proline hydroxylation; type: biochemical; settings: human PHD2, fluorescence polarization assay, 20-min incubation at 30° C.
Procedure: (1) Expression and Preparation of Human PHD2
A registered sequence of human PHD2 (NM_022051) was introduced into pcDNA3.1/Hygro(+) vector (Invitrogen), and the sequence was verified. […] The suspension of disrupted cells was centrifuged at 4° C. and 100,000×g for 30 minutes and the supernatant was recovered as a cell lysate.
(2) Measurement of Human PHD2 Inhibitory Activity
The activity of human PHD2 enzyme was measured with a substrate which is a 19-residue partial peptide based on the sequence of HIF-1α; specifically, the hydroxylation of a proline residue in the peptide was measured by FP (Fluorescence Polarization).
A test compound and the substrate solution were preliminarily added onto 384-well plates and reaction was initiated by adding a human PHD2 enzyme solution (40 ng/well). After 20-min incubation at 30° C., an EDTA-containing quench solution was added and the amount of the proline residues hydroxylated via binding to an added HIF—OH antibody solution was quantified by fluorescence polarization.
The fluorescence polarization of each well was measured and the human PHD2 inhibitory activity of each test compound was calculated on the basis of the values for the test compound-free group.

Chain of human PHD2 (Q9GZT9 whole entry): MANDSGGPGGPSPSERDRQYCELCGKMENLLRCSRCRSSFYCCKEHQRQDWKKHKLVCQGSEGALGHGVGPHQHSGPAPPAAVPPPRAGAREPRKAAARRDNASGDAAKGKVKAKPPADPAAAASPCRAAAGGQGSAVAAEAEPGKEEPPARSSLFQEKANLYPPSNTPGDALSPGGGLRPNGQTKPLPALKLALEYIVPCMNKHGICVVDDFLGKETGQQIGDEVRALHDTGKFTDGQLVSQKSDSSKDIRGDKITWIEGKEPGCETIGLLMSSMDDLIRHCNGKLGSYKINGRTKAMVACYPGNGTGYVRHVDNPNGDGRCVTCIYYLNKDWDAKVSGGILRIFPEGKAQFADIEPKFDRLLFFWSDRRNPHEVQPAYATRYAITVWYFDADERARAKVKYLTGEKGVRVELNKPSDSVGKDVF

Structure (SMILES) | IC50
Cc1ccc(Oc2cnc(CN3CCC(O)=C(C(=O)NCC(=O)O)C3=O)cn2)cc1 [Ex. 1-385] | 54 nM
Cc1ccc(Oc2ccc(CN3CCC(O)=C(C(=O)NCC(=O)O)C3=O)cc2)cc1C [Ex. 1-386] | 48 nM
Cc1ccc(Oc2ncc(CN3CCC(O)=C(C(=O)NCC(=O)O)C3=O)cc2Cl)cc1 [Ex. 1-392] | 26 nM
Cc1ccc(Oc2ncc(CN3CCC(O)=C(C(=O)NCC(=O)O)C3=O)cc2F)cc1 [Ex. 1-393] | 32 nM
O=C(O)CNC(=O)C1=C(O)CCN(Cc2ccc(Oc3ccc(C4CC4)cn3)cc2)C1=O [Ex. 1-404] | 56 nM
Cc1ccc(Oc2ncc(CN3CCC(O)=C(C(=O)NCC(=O)O)C3=O)cn2)cc1 [Ex. 1-408] | 72 nM
Cc1cc(CN2CCC(O)=C(C(=O)NCC(=O)O)C2=O)cnc1Oc1ccc(Cl)cc1 [Ex. 1-409] | 25 nM
O=C(O)CNC(=O)C1=C(O)CCN(Cc2cnc(Oc3ccc(Cl)cc3)cn2)C1=O [Ex. 1-440] | 39 nM
O=C(O)CNC(=O)C1=C(O)CCN(Cc2cnc(Oc3ccc(C4CC4)cc3)cn2)C1=O [Ex. 1-443] | 21 nM

same assay, conditions: test compound's concentration 1 μM; Test 2, fluorescence polarization assay

Structure (SMILES) | Percent inhibition (% at 1 μM)
O=C(O)CNC(=O)C1=C(O)CCN(CC2CCC(Oc3ccccc3)CC2)C1=O (stereo not drawn) [Ex. 1-391] | 82%

same assay, conditions: test compound's concentration 1 μM; Test 2, fluorescence polarization assay; read-out: Percent inhibition (% at 1 μM)

Structure (SMILES) | inhibition at 1 µM
Cc1cc(CN2CCC(O)=C(C(=O)NCC(=O)O)C2=O)ccc1OCc1ccccc1 [Ex. 1-381] | 92%
O=C(O)CNC(=O)C1=C(O)CCN(Cc2ccc(OCCC(F)(F)F)cc2)C1=O [Ex. 1-382] | 83%
Cc1cc(CN2CCC(O)=C(C(=O)NCC(=O)O)C2=O)ccc1OCCC(F)(F)F [Ex. 1-383] | 83%
O=C(O)CNC(=O)C1=C(O)CCN(Cc2ccc(OCCC(F)(F)F)c(F)c2)C1=O [Ex. 1-384] | 82%
Cc1ccc(Oc2cnc(CN3CCC(O)=C(C(=O)NCC(=O)O)C3=O)cn2)cc1 [Ex. 1-385] | 93%
Cc1ccc(Oc2ccc(CN3CCC(O)=C(C(=O)NCC(=O)O)C3=O)cc2)cc1C [Ex. 1-386] | 92%
Cc1ccc(COc2ccc(CN3CCC(O)=C(C(=O)NCC(=O)O)C3=O)cc2F)cc1 [Ex. 1-387] | 93%
Cc1cc(CN2CCC(O)=C(C(=O)NCC(=O)O)C2=O)ccc1OCc1ccc(F)cc1 [Ex. 1-388] | 92%
Cc1cc(CN2CCC(O)=C(C(=O)NCC(=O)O)C2=O)ccc1OCc1ccc(OC(F)(F)F)cc1 [Ex. 1-389] | 69%
O=C(O)CNC(=O)C1=C(O)CCN(CC2CCC(Oc3ccccc3)CC2)C1=O (stereo not drawn) [Ex. 1-390] | 89%
Cc1ccc(Oc2ncc(CN3CCC(O)=C(C(=O)NCC(=O)O)C3=O)cc2Cl)cc1 [Ex. 1-392] | 98%
Cc1ccc(Oc2ncc(CN3CCC(O)=C(C(=O)NCC(=O)O)C3=O)cc2F)cc1 [Ex. 1-393] | 98%
Cc1nc(COc2ccc(CN3CCC(O)=C(C(=O)NCC(=O)O)C3=O)cc2Cl)c(C)o1 [Ex. 1-394] | 83%
O=C(O)CNC(=O)C1=C(O)CCN(C[C@@H]2CC[C@@H](c3ccccc3)C2)C1=O [Ex. 1-395] | 90%
CC1(COc2ccc(CN3CCC(O)=C(C(=O)NCC(=O)O)C3=O)cn2)CC1 [Ex. 1-396] | 89%
Cc1ccc(COc2ccc(CN3CCC(O)=C(C(=O)NCC(=O)O)C3=O)cc2)cn1 [Ex. 1-398] | 91%
O=C(O)CNC(=O)C1=C(O)CCN(CC2(c3ccccc3)CC2)C1=O [Ex. 1-399] | 55%
Cc1ncccc1COc1ccc(CN2CCC(O)=C(C(=O)NCC(=O)O)C2=O)cc1 [Ex. 1-401] | 90%
O=C(O)CNC(=O)C1=C(O)CCN(C[C@H]2CC[C@H](Oc3ccc(F)cc3)CC2)C1=O [Ex. 1-402] | 109%
O=C(O)CNC(=O)C1=C(O)CCN(C[C@H]2CC[C@H](Oc3ccc(C(F)(F)F)cc3)CC2)C1=O [Ex. 1-403] | 102%
O=C(O)CNC(=O)C1=C(O)CCN(Cc2ccc(Oc3ccc(C4CC4)cn3)cc2)C1=O [Ex. 1-404] | 96%
O=C(O)CNC(=O)C1=C(O)CCN(Cc2ccc(OCc3ccc(Cl)cn3)cc2)C1=O [Ex. 1-405] | 90%
Cc1cnc(COc2ccc(CN3CCC(O)=C(C(=O)NCC(=O)O)C3=O)cc2)s1 [Ex. 1-406] | 86%

Structure (SMILES) | inhibition at 1 µM
O=C(O)CNC(=O)C1=C(O)CCN(Cc2ccc(OCc3cn4ccsc4n3)cc2)C1=O [Ex. 1-407] | 85%
Cc1ccc(Oc2ncc(CN3CCC(O)=C(C(=O)NCC(=O)O)C3=O)cn2)cc1 [Ex. 1-408] | 91%
Cc1cc(CN2CCC(O)=C(C(=O)NCC(=O)O)C2=O)cnc1Oc1ccc(Cl)cc1 [Ex. 1-409] | 98%
Cc1cc(CN2CCC(O)=C(C(=O)NCC(=O)O)C2=O)cnc1OCC(F)(F)F [Ex. 1-410] | 82%
Cc1cc(CN2CCC(O)=C(C(=O)NCC(=O)O)C2=O)cnc1OCCC1CC1 [Ex. 1-411] | 90%
O=C(O)CNC(=O)C1=C(O)CCN(C[C@H]2CC[C@H](Oc3ccc(F)cn3)CC2)C1=O [Ex. 1-412] | 87%
CC(C)(CN1CCC(O)=C(C(=O)NCC(=O)O)C1=O)c1ccc(Cl)cc1 [Ex. 1-413] | 75%
O=C(O)CNC(=O)C1=C(O)CCN(Cc2ccc(-c3ccc(C4CC4)nc3)cc2)C1=O [Ex. 1-414] | 96%
Cc1ccc(OCc2ccc(CN3CCC(O)=C(C(=O)NCC(=O)O)C3=O)cc2)cn1 [Ex. 1-415] | 94%
O=C(O)CNC(=O)C1=C(O)CCN(Cc2ccc(COc3ccccc3)cc2)C1=O [Ex. 1-416] | 95%
Cc1ccc(OCc2ccc(CN3CCC(O)=C(C(=O)NCC(=O)O)C3=O)cc2)cc1 [Ex. 1-417] | 99%
Cc1ccc(COc2ccc(CN3CCC(O)=C(C(=O)NCC(=O)O)C3=O)cn2)cc1 [Ex. 1-418] | 98%
O=C(O)CNC(=O)C1=C(O)CCN(Cc2ccc(OCc3ccc(Cl)cc3)nc2)C1=O [Ex. 1-419] | 98%
O=C(O)CNC(=O)C1=C(O)CCN(Cc2cnc(OCCC3CC3)c(Cl)c2)C1=O [Ex. 1-420] | 92%
COc1cccc(-c2ccc(CN3CCC(O)=C(C(=O)NCC(=O)O)C3=O)cc2)n1 [Ex. 1-421] | 99%
O=C(O)CNC(=O)C1=C(O)CCN(Cc2ccc(-c3ccc(Cl)cn3)cc2)C1=O [Ex. 1-422] | 100%
O=C(O)CNC(=O)C1=C(O)CCN(Cc2ccc(COc3ccc(C(F)(F)F)nc3)cc2)C1=O [Ex. 1-423] | 96%
O=C(O)CNC(=O)C1=C(O)CCN(Cc2ccc(COc3ccc(C(F)(F)F)cn3)cc2)C1=O [Ex. 1-424] | 97%
COc1cccnc1-c1ccc(CN2CCC(O)=C(C(=O)NCC(=O)O)C2=O)cc1 [Ex. 1-425] | 90%
COc1ccc(-c2ccc(CN3CCC(O)=C(C(=O)NCC(=O)O)C3=O)cc2)nc1 [Ex. 1-426] | 88%
O=C(O)CNC(=O)C1=C(O)CCN(CC2CCC(OCc3ccc(Cl)cc3)CC2)C1=O (stereo not drawn) [Ex. 1-427] | 95%
O=C(O)CNC(=O)C1=C(O)CCN(C[C@H]2CC[C@H](Oc3ccc(Cl)cc3)CC2)C1=O [Ex. 1-428] | 100%
O=C(O)CNC(=O)C1=C(O)CCN(C[C@H]2CC[C@H](OCc3ccc(Cl)cc3)CC2)C1=O [Ex. 1-429] | 96%

Structure (SMILES) | inhibition at 1 µM
Cc1ccc(O[C@H]2CC[C@H](CN3CCC(O)=C(C(=O)NCC(=O)O)C3=O)CC2)cc1 [Ex. 1-430] | 95%
CCc1ccc(O[C@H]2CC[C@H](CN3CCC(O)=C(C(=O)NCC(=O)O)C3=O)CC2)cc1 [Ex. 1-431] | 99%
O=C(O)CNC(=O)C1=C(O)CCN(C[C@H]2CC[C@H](Oc3ccc(Cl)cn3)CC2)C1=O [Ex. 1-432] | 93%
O=C(O)CNC(=O)C1=C(O)CCN(C[C@H]2CC[C@@H](Oc3ccc(F)cn3)CC2)C1=O [Ex. 1-433] | 76%
O=C(O)CNC(=O)C1=C(O)CCN(C[C@H]2CC[C@@H](Oc3ccc(F)cc3)CC2)C1=O [Ex. 1-434] | 85%
Cc1ccc(O[C@H]2CC[C@H](CN3CCC(O)=C(C(=O)NCC(=O)O)C3=O)CC2)nc1 [Ex. 1-435] | 87%
COc1ccnc(-c2ccc(CN3CCC(O)=C(C(=O)NCC(=O)O)C3=O)cc2)c1 [Ex. 1-436] | 85%
O=C(O)CNC(=O)C1=C(O)CCN(C[C@H]2CC[C@H](Oc3ccc(C(F)(F)F)cn3)CC2)C1=O [Ex. 1-437] | 92%
O=C(O)CNC(=O)C1=C(O)CCN(C[C@H]2CC[C@H](OCc3ccc(F)cc3)CC2)C1=O [Ex. 1-438] | 90%
O=C(O)CNC(=O)C1=C(O)CCN(C[C@H]2CC[C@H](Oc3ccccn3)CC2)C1=O [Ex. 1-439] | 81%
O=C(O)CNC(=O)C1=C(O)CCN(Cc2cnc(Oc3ccc(Cl)cc3)cn2)C1=O [Ex. 1-440] | 98%
O=C(O)CNC(=O)C1=C(O)CCN(C[C@H]2CC[C@H](Oc3ccc(C4CC4)cc3)CC2)C1=O [Ex. 1-442] | 98%
O=C(O)CNC(=O)C1=C(O)CCN(Cc2cnc(Oc3ccc(C4CC4)cc3)cn2)C1=O [Ex. 1-443] | 101%
O=C(O)CNC(=O)C1=C(O)CCN(C[C@H]2CC[C@H](OCc3ccccc3)CC2)C1=O [Ex. 1-444] | 88%
O=C(O)CNC(=O)C1=C(O)CCN(C[C@H]2CC[C@H](OCC3CC3)CC2)C1=O [Ex. 1-445] | 75%
O=C(O)CNC(=O)C1=C(O)CCN(C[C@H]2CC[C@H](Oc3ccc(C4CC4)cn3)CC2)C1=O [Ex. 1-446] | 94%
O=C(O)CNC(=O)C1=C(O)CCN(C[C@H]2CC[C@H](OCCc3ccccc3)CC2)C1=O [Ex. 1-447] | 98%
O=C(O)CNC(=O)C1=C(O)CCN(C[C@H]2CC[C@H](OCC3CCCC3)CC2)C1=O [Ex. 1-448] | 92%
CCc1ccc(O[C@H]2CC[C@H](CN3CCC(O)=C(C(=O)NCC(=O)O)C3=O)CC2)nc1 [Ex. 1-449] | 99%
Cc1ccc(CO[C@H]2CC[C@H](CN3CCC(O)=C(C(=O)NCC(=O)O)C3=O)CC2)cc1 [Ex. 1-450] | 97%
O=C(O)CNC(=O)C1=C(O)CCN(C[C@H]2CC[C@H](OC3CCC3)CC2)C1=O [Ex. 1-451] | 82%
CC(Cc1ccc(Cl)cc1)N1CCC(O)=C(C(=O)NCC(=O)O)C1=O (stereo not drawn) [Ex. 1-452] | 67%
